From paper PMC6514996, “Discovery of Potent and Selective Halogen-Substituted Imidazole-Thiosemicarbazides for Inhibition of Toxoplasma gondii Growth In Vitro via Structure-Based Design” (Molecules, 2019)
Values after ≈ are worked out from the molar mass of the structure shown.

How the values were obtained:
[1] = system: Toxoplasma gondii tachyzoites; design: method as in PMID 30744161; settings: ref [19], cited from earlier work; for IC50: inhibition of T. gondii tachyzoite proliferation, previous study; for SR (selectivity ratio): ratio of CC50 to IC50, previous study
[2] = system: Toxoplasma gondii RH strain tachyzoites (ATCC PRA 310); experiment: Influence on T. gondii proliferation in Hs27 cells, [3H]-uracil incorporation assay; assay type: cell-based; settings: for IC50: Toxoplasma gondii, HS27, 50% inhibition of T. gondii RH proliferation in vitro, Hs27 host cells, [3H]-uracil incorporation; for SR (selectivity ratio): ratio of CC50 (L929) to IC50 (T. gondii)
[3] = Cytotoxicity against L929 cells, MTT cell viability assay (ISO 10993-5:2009(E)); assay type: cell-based; settings: mouse, L929 mouse fibroblast cells; for viability at 24 h, 5 µg/mL / viability at 24 h, 25 µg/mL / viability at 24 h, 50 µg/mL / viability at 24 h, 125 µg/mL / viability at 24 h, 250 µg/mL / viability at 24 h, 500 µg/mL / viability at 24 h, 1000 µg/mL: read-out: viability of L929 cells (% of viable cells); for CC50 at 24 h: 50% cell proliferation inhibition, L929 cells
From the text: Since T. gondii is an obligate intracellular parasite that requires invasion of mammalian host cells to proliferate, compounds that inhibit parasite growth might be toxic to host cells as well. Therefore, as an initial indicator for host cell toxicity, we firstly evaluated compounds 5–16 for their ability to inhibit the growth of mouse fibroblast (L929) cells line according to the international standards: ISO 10993-5:2009(E).
To calculate the reduction of viability compared to the untreated blank the equation was used: viability (%) = 100% × sample OD570 (the mean value of the measured optical density of the treated cells)/blank OD570 (the mean value of the measured optical density of the untreated cells). CC50—represents the concentration of tested compounds that was required for a 50% cell proliferation inhibition in vitro. The effect of the tested compounds on the cell lines was measured using MTT assay according to the international standard: ISO 10993-5:2009(E). CC50 values were determined based on the plotted curves using GraphPad Prism program (version 8.0.1).
Cell culture: the L929 mouse fibroblast (ATTC® CCL-1™) was routinely cultured in IMDM (Iscove’s Modified Dulbecco Medium, Biowest, Nuaille, France), supplemented with 10% HIFBS, 100 U/mL penicillin and 100 μg/mL streptomycin. Cells were trypsinized twice a week and seeded at a density of 1 × 10^6 per T25 cell culture flask and incubated for 24–48 h in a 37 °C and 10% CO2 to achieve a confluent monolayer.
Cell viability assay: Assays were performed according to international standards: ISO 10993-5:2009(E), Biological evaluation of medical devices, Part 5: Tests for in vitro cytotoxicity. Cell viability were evaluated using the tetrazolium salt [3-(4,5-dimethylthiazol-2-yl)-2,5-diphenyltetrazolium bromide] (Sigma) and mouse fibroblasts L929 cells. For this assay we used only the culture medium, RPMI 1640, without phenol red (Biowest) supplemented with 10% HIFBS, 2 mM L-glutamine (Sigma), 100 U/mL penicillin, 100 μg/mL streptomycin. Shortly after, a 1 × 10^4/well of L929 cells were placed into 96-well plates and incubated in 37 °C and 10% CO2. Afterwards, an old culture medium was replaced by 100 μL of compounds and drugs dilutions in culture medium and the cells were treated for 24 h. Moreover, cells were treated with a 4.0–0.03% concentration of DMSO and 1M NaOH as a compound and drugs solvent (data not shown). Then, 50 μL of 1 mg/mL of MTT solution in RPMI 1640 without phenol red was added to each well and incubated 2h (37 °C, 10% CO2). Next, cell culture medium was aspirated cautiously and 150 μL of DMSO was added to each well, the plates were gently mixed. Then 25 μL 0.1M glycine buffer (pH = 10.5) (Sigma) was added. The optical density at 570 nm on the ELISA reader (Multiskan EX, Labsystems, Vienna, VA, USA), was read. The results were expressed as a percentage of viability compared to untreated cells. All experiments were performed in triplicate. For comparison reasons, two compounds known from our previous studies (6 and 9) were included in the bioassay performed for compounds 5, 7, 8, 9–16.

[4] = Lipophilicity by HPLC (logkw extrapolation, OECD guideline); assay type: physicochemical; settings: Phenomenex Synergi 4 µm Polar-RP column, methanol:water, calibration with seven standards
Procedure: HPLC experiments were performed using a chromatograph equipped with an Elite LaChrom L-2130 gradient pump, L-2455 DAD detector, L-2300 column oven, and L-2200 autosampler (Hitachi-Merck, Darmstadt, Germany). The tested samples were applied into the Phenomenex Synergi 4 µm Polar-RP chromatographic column (Phenomenex, Torrance, CA, USA) (150 mm length, 4.6 mm i.d.). Mobile phases were degassed using a built-in membrane degasser.
Chromatographic analysis: 5 µL of each sample (0.1% methanolic solutions) was applied into the chromatographic column and chromatograms were developed at a flow rate of 1.0 mL min^−1 in the isocratic mode using various concentrations of methanol in the binary polar mobile phase: methanol:water (40:60, 45:55, 50:50, 55:45, 60:40, 65:35, and 70:30 (v/v)) Chromatograms were detected at 254 nm. All experiments were repeated in triplicate, and the final results were their arithmetic mean. Dead time was measured for uracil (Calbiochem—Merck, Darmstadt, Germany). All the experiments were performed at ambient temperature.
The chromatographic lipophilicity parameter (logkw) for 5–16 was obtained by the extrapolation of the retention parameter logk to pure water, according to the equation: logk = logkw − S × φ(1) where logkw is the value of the retention factor of a substance in pure water, S is the slope of the regression curve, and φ is the concentration (v/v) of methanol in the mobile phase.
Subsequently, logPHPLC parameters for 5–16 were calculated according to OECD guidelines, based on the equation obtained for seven standards with known lipohilicity parameters (logPo/w): logPo/w = 1.0239(± 0.03)·logkw − 0.1541(± 0.08); n = 7; r = 0.9976; se = 0.08; F = 1047.8(2)

Compound	chromatographic logP [4]	melting point [°C]	IC50 [1]	SR (selectivity ratio) [1] [fold]	IC50 [2] [µg/mL]	SR (selectivity ratio) [2]	viability at 24 h, 5 µg/mL [3] [%]	viability at 24 h, 25 µg/mL [3] [%]	viability at 24 h, 50 µg/mL [3] [%]	viability at 24 h, 125 µg/mL [3] [%]	viability at 24 h, 250 µg/mL [3] [%]	viability at 24 h, 500 µg/mL [3] [%]	viability at 24 h, 1000 µg/mL [3] [%]	CC50 at 24 h [3] [µg/mL]
Cc1nc[nH]c1C(=O)NNC(=S)Nc1cccc([N+](=O)[O-])c1 [Compound 1]			14.78 µg/mL (≈ 46.1 µM)	18										
Cc1nc[nH]c1C(=O)NNC(=S)Nc1ccc([N+](=O)[O-])cc1 [Compound 2]			21.62 µg/mL (≈ 67.5 µM)	16										
Cc1nc[nH]c1C(=O)NNC(=S)Nc1cccc(Cl)c1 [Compound 3]			25.70 µg/mL (≈ 83 µM)	10										
Cc1ccc(NC(=S)NNC(=O)c2[nH]cnc2C)cc1Cl [Compound 4]			18.62 µg/mL (≈ 57.5 µM)	4										
Cc1nc[nH]c1C(=O)NNC(=S)Nc1ccccc1F [Compound 5]	2.8				≥ 69	6.61	98.1	97.3	74.8	87	69.3	64.1	45.8	455 (≈ 1550 µM)
Cc1nc[nH]c1C(=O)NNC(=S)Nc1cccc(F)c1 [Compound 6]	2.99				≥ 69	7.79	96.3	97.3	75.4	64.8	62.4	52.3	35.4	885 (≈ 3020 µM)
Cc1nc[nH]c1C(=O)NNC(=S)Nc1ccccc1I [Compound 14, 4-(2-Iodophenyl)-1-(4-methylimidazol-5-oyl)thiosemicarbazide]	3.23				20.3 (≈ 50.6 µM)		95.2	92.8	83.7	65.4	44.5	26.1	25	199 (≈ 496 µM)
Nc1ccc(S(=O)(=O)Nc2ncccn2)cc1 [sulfadiazine, 4-amino-N-(2-pyrimidinyl)benzenesulfonamide, reference compound]			~ 2721.45 µg/mL		> 2500	<0.92								> 2500
COc1cc(Cc2cnc(N)nc2N)cc(OC)c1OC [trimethoprim, 2,4-diamino-5-(3,4,5-trimethoxybenzyl)pyrimidine, reference compound]					12.1 (≈ 41.8 µM)	>2.64								> 32

Further lines, with some results ahead:

chromatographic logP [4]	melting point [°C]	Compound	IC50 [1]	SR (selectivity ratio) [1] [fold]	IC50 [2] [µg/mL]	SR (selectivity ratio) [2]	viability at 24 h, 5 µg/mL [3] [%]	viability at 24 h, 25 µg/mL [3] [%]	viability at 24 h, 50 µg/mL [3] [%]	viability at 24 h, 125 µg/mL [3] [%]	viability at 24 h, 250 µg/mL [3] [%]	viability at 24 h, 500 µg/mL [3] [%]	viability at 24 h, 1000 µg/mL [3] [%]	CC50 at 24 h [3] [µg/mL]
2.8		Cc1nc[nH]c1C(=O)NNC(=S)Nc1ccc(F)cc1 [Compound 7]			≥ 69	8.86	103	103	89.2	83.1	69.9	61.4	48.7	977 (≈ 3330 µM)
3.17	217 to 219	Cc1nc[nH]c1C(=O)NNC(=S)Nc1ccccc1Cl [Compound 8, 4-(2-Chlorophenyl)-1-(4-methylimidazol-5-oyl)thiosemicarbazide]			35.6 (≈ 115 µM)	17.69	89.9	86.3	78.5	69.4	64.8	57.1	39.5	630 (≈ 2030 µM)
3.51		Cc1nc[nH]c1C(=O)NNC(=S)Nc1cccc(Cl)c1 [Compound 9]			24.1 (≈ 78 µM)	11.30	93.9	88.5	75.3	64.7	56.7	30.2	8.47	273 (≈ 881 µM)
3.44		Cc1nc[nH]c1C(=O)NNC(=S)Nc1ccc(Cl)cc1 [Compound 10]			≥ 69	3.15	103	96.3	70.3	63.6	56.6	23.6	13.6	231 (≈ 746 µM)
3.71		Cc1nc[nH]c1C(=O)NNC(=S)Nc1cccc(Br)c1 [Compound 12, 4-(3-Bromophenyl)-1-(4-methylimidazol-5-oyl)thiosemicarbazide]			15.6 (≈ 44.2 µM)		95.3	89	74.4	65.7	56.8	20.2	7.52	238 (≈ 671 µM)
3.64		Cc1nc[nH]c1C(=O)NNC(=S)Nc1ccc(Br)cc1 [Compound 13, 4-(4-Bromophenyl)-1-(4-methylimidazol-5-oyl)thiosemicarbazide]			14.6 (≈ 41.1 µM)		93.5	82	64.1	56.6	51.1	42.1	30.8	224 (≈ 631 µM)
